Measurements from patent publication US20210290541A1, “SOLID DISPERSION OF HYDANTOIN DERIVATIVE” (Chugai Seiyaku Kabushiki Kaisha, priority 2018, published 2021).
≈ marks a conversion by molar mass, not a printed value.

Legend:
Type in all cases: physicochemical
pKa values = assay: pKa values
Text: (§1) Compound I can be produced, for example, by the method described in Example 3 (Compound 7) of WO2014/092061.
In the present invention, the “base” preferably has a pKa value greater than that of Compound I. Since the lower pKa value of Compound I is about 8, the bases that can be used in the present invention desirably have a pKa value that is preferably more than about 9, even more preferably more than about 10, and most preferably more than about 11. Here, the term pKa is used in its conventional form. That is, pKa is the negative logarithm of the ionization constant of the acid. Unless otherwise specified, pKa is assumed to be measured in distilled water at 25° C.

[1] = solubility in FaSSIF (excess amount, stirring 24 hours or more, centrifugation, HPLC)
Protocol: A suitable FaSSIF is, for example, an aqueous solution containing 28.7 mM potassium dihydrogen phosphate (KH2PO4), 103.3 mM KCl, 3 mM sodium taurocholate, and 0.8 mM L-α-phosphatidylcholine, and adjusted to pH 6.5 using NaOH.
Furthermore, for the purpose of evaluating the solubility of the type I crystal of the free form of Compound I in FaSSIF, an excess amount of the type I crystal of the free form of Compound I was placed in FaSSIF, and after soaking and stirring at 37° C. for 24 hours or more, this was subjected to centrifugation. […] In addition, the solubility of the type II crystal of the free form of Compound I evaluated in the same manner was 2 μg/mL.

water solubility = conditions: 37° C., pH 6 to 7
Text: as §1

[2] = organic solvent solubility; conditions: for solubility: organic solvent or mixture
Protocol: as §1
A solvent suitable for solvent treatment may be any compound in which drugs, polymers, and bases are mutually soluble. Preferably, the solvent is also volatile and has a boiling point of 150° C. or lower. Furthermore, the solvent should have relatively low toxicity and should be removed from the solid dispersion to a level that is acceptable according to the guidelines of the International Council for Harmonization of Technical Requirements for Pharmaceuticals for Human Use (ICH). Removal of the solvent to this level may require a subsequent processing step such as tray-drying. Preferred solvents include alcohols such as methanol, ethanol, n-propanol, iso-propanol, and butanol; ketones such as acetone, methyl ethyl ketone, and methyl iso-butyl ketone; esters such as ethyl acetate and propyl acetate; and various other solvents, such as acetonitrile, methylene chloride, toluene, 1,1,1-trichloroethane, and tetrahydrofuran. Low-volatility solvents such as dimethylacetamide or dimethylsulfoxide can also be used in small amounts in mixtures with volatile solvents. A mixture of solvents such as 50% methanol and 50% acetone can also be used in the same manner as a mixture with water. Preferred solvents are ethanol, methanol, acetone, tetrahydrofuran, ethyl acetate, mixtures of these with water, and mixtures thereof. […] In particular, tetrahydrofuran and its mixed liquids can be referred to as preferred solvents.

[3] = storage stability of crystals

SMILES: Cc1cc(N2C(=O)NC(=O)C2(C)C)cc(C)c1CCS(=O)(=O)N1CCC2(CC1)N=C(c1ccc(OC(F)(F)F)cc1)NC2=O
- pKa (pKa values; distilled water): 8
- solubility ([1]; FaSSIF, 37 °C, pH 6.5, fassif, thermodynamic from solid): 0.001 mg/mL (≈ 1.57 µM)
- solubility (water solubility): < 0.001 mg/mL

SMILES: Cc1cc(N2C(=O)NC(=O)C2(C)C)cc(C)c1CCS(=O)(=O)N1CCC2(CC1)N=C(c1ccc(OC(F)(F)F)cc1)NC2=O [Compound I, 1-(3,5-dimethyl-4-(2-((4-oxo-2-(4-(trifluoromethoxy)phenyl)-1,3,8-triazaspiro[4.5]deca-1-en-8-yl)sulfonyl)ethyl)phenyl)-5,5-dimethylimidazolidine-2,4-dione]
- pKa values (pKa values): about 8
- solubility ([2]; acetone/water mixture (95:5 v/v), volume ratio 95:5, read-out: solubility in a mixed solution of acetone and water): ≥ 50 mg/mL
- solubility ([2]; tetrahydrofuran, room temperature, read-out: solubility in THF (tetrahydrofuran)): ≥ 80 mg/mL
- solubility ([2]; tetrahydrofuran/methanol mixture (95:5 v/v), volume ratio 95:5, read-out: solubility in a mixed solution of tetrahydrofuran and methanol): ≥ 100 mg/mL

SMILES: Cc1cc(N2C(=O)NC(=O)C2(C)C)cc(C)c1CCS(=O)(=O)N1CCC2(CC1)N=C(c1ccc(OC(F)(F)F)cc1)NC2=O [type I crystal of the free form of Compound I]
- storage stability [3]: excellent storage stability
- solubility in THF (tetrahydrofuran) ([2]; room temperature): ≥ 80 mg/mL

SMILES: Cc1cc(N2C(=O)NC(=O)C2(C)C)cc(C)c1CCS(=O)(=O)N1CCC2(CC1)N=C(c1ccc(OC(F)(F)F)cc1)NC2=O [type II crystal of the free form of Compound I]
- solubility in FaSSIF ([1]; 37° C.): 0.002 mg/mL (≈ 3.15 µM)
